Test results: patent US4215143A (Mitsui Toatsu Chemicals, Incorporated, priority 1978, dated 1980)

What was measured:
[1] = test system: pepsin; assay: Effect on pepsin activity in pylorus-ligated rats (Anson's method); format: in vivo, Male rats of the Donryu strain; conditions: 250 mg/kg, p.o.; 4 hours; control 7.4 ± 0.5; ** significant vs control at the 1% level
Procedure: (§1) Male rats of the Donryu strain, 11 weeks of age, were used in groups of ten. After 24 hours of fasting, the pylorus was ligated. Four hours later, the gastric juice was collected and its volume was measured. Then, its acidity was determined by titrating an aliquot of the gastric juice with 0.05 N sodium hydroxide. Further, the activity of pepsin was determined by Anson's method. A definite amount (250 mg/kg) of a compound to be tested was orally administered immediately after the ligation of the pylorus.

[2] = test system: Gastric Juice Secretion; assay: Effect on gastric juice secretion in pylorus-ligated rats; format: in vivo, Male rats of the Donryu strain; conditions: 250 mg/kg, p.o.; 4 hours; control 4.9 ± 0.4; * significant vs control at the 5% level
Procedure: as §1

[3] = test system: Gastric Juice Acidity; assay: Effect on gastric juice acidity in pylorus-ligated rats; format: in vivo, Male rats of the Donryu strain; conditions: 250 mg/kg, p.o.; 4 hours; control 92.5 ± 3.7; * significant vs control at the 5% level
Procedure: as §1

[4] = test system: Aspirin Ulcer; assay: Aspirin Ulcer, anti-ulcer effect; format: in vivo, Male rats of the Donryu strain; conditions: p.o., aspirin 250 mg/kg oral, 6 hours
Procedure: (§2) The anti-ulcer effect of some compounds of this invention was evaluated with regard to various types of experimental gastric and duodenal ulcers. The method of evaluation for each type of ulcer is outlined below.
Male rats of the Donryu strain, 10 or 11 weeks of age, were used in groups of ten. After 24 hours of fasting, a certain amount of a compound to be tested was orally administered to each animal of a group. Ten minutes later, aspirin was orally administered in a dose of 250 mg/kg. After 6 hours, the size of the ulcer formed in the glandular part of the stomach was rated by visual inspection and regarded as an ulcer index (U.I.). The results are also expressed in terms of the percentage of inhibition based on the U.I. obtained in the control group receiving no compounds to be tested.

[5] = test system: Acetic Acid Ulcer; assay: Acetic Acid Ulcer, healing promotion effect; format: in vivo, Male rats of the Wistar strain; conditions: p.o., twice a day for 7 days
Procedure: as §2
Male rats of the Wistar strain, 6 weeks of age, were used in groups of ten. Under ether anesthesia, each animal was laparotomized, a round frame (with an inside diameter of 5 mm) made of stainless steel was applied to the anterior wall of the stomach, and 100% acetic acid was poured into the frame. After 30 seconds, the acetic acid was removed and the abdomen was closed. Starting on the 7th day after the operation, a certain amount of a compound to be tested was orally administered twice a day to each animal of a group for a period of 7 days. Thereafter, the degree of healing of the ulcer was rated by visual insepction and regarded as an ulcer index (U.I.). The results are also expressed in terms of the percentage of healing based on the U.I. obtained in the control group receiving no compounds to be tested.

[6] = test system: Stress Ulcer; assay: Stress Ulcer (water immersion restraint), anti-ulcer effect; format: in vivo, Male rats of the Wistar strain; conditions: 250 mg/kg, p.o.; stress for 16 hours; vs control group
Procedure: The anti-ulcer effect of some compounds of this invention was evaluated with regard to various types of experimental gastric and duodenal ulcers. The method of evaluation for each type of ulcer is outlined below. Male rats of the Wistar strain, 8 weeks of age, were used in groups of ten. Each animal was immobilized in a stressing cage as developed by Takagi et al., immersed in water at 23° C. to the level of the xiphoid process, and thereby subjected to stress for 16 hours. Thereafter, the stomach was excised. The length of the ulcer formed in the glandular part of the stomach was measured and regarded as an ulcer index (U.I.). A certain amount of a compound to be tested was orally administered just before subjecting the animal to stress. The results are also expressed in terms of the percentage of inhibition based on the U.I. obtained in the control group receiving no compounds to be tested.

[7] = test system: Shay's Ulcer; assay: Shay's Ulcer (pylorus ligation), anti-ulcer effect; format: in vivo, Male rats of the Wistar strain; conditions: p.o., 12 hours, vs control group
Procedure: The anti-ulcer effect of some compounds of this invention was evaluated with regard to various types of experimental gastric and duodenal ulcers. The method of evaluation for each type of ulcer is outlined below. Male rats of the Wistar strain, 7 or 8 weeks of age, were used in groups of ten. After 48 hours of fasting, the pyloric part of the stomach was ligated under ether anesthesia. Immediately after the operation, a certain amount of a compound to be tested was orally administered to each animal of a group. After 12 hours, the degree of ulceration occurring in the anterior part of the stomach was rated and regarded as an ulcer index (U.I.). Control rats were treated in the same manner as described above, except that they received no compounds to be tested. The results given in Table 1 are expressed in terms of the percentage of inhibition based on the U.I. obtained in the control group.

inositol hexasulfate aluminum salt
Activity of Pepsin [1]: 4.8 ± 0.4 mg/mL | Amount of Gastric Juice Secreted [2]: 3.6 ± 0.4 mL | Acidity of Gastric Juice [3]: 57.8 ± 12.9 mEq/l

inositol hexasulfate sodium aluminum salt
Activity of Pepsin [1]: 5.1 ± 0.5 mg/mL | percentage of inhibition (ulcer index, Aspirin Ulcer) ([4]; 100 mg/kg): 42 percentage | percentage of inhibition (ulcer index, Aspirin Ulcer) ([4]; 250 mg/kg): 49 percentage | Amount of Gastric Juice Secreted [2]: 3.6 ± 0.4 mL | percentage of healing (ulcer index, Acetic Acid Ulcer) ([5]; 100 mg/kg): 23 percentage | percentage of healing (ulcer index, Acetic Acid Ulcer) ([5]; 250 mg/kg): 28 percentage | percentage of inhibition (ulcer index, Stress Ulcer) [6]: 30 percentage | Acidity of Gastric Juice [3]: 61.1 ± 11.4 mEq/l | percentage of inhibition (ulcer index, Shay's Ulcer) ([7]; 100 mg/kg): 87 percentage | percentage of inhibition (ulcer index, Shay's Ulcer) ([7]; 250 mg/kg): 90 percentage
